ChEMBL document CHEMBL3272295, “Drugs derived from cannabinoids. 5. delta6a,10a-Tetrahydrocannabinol and heterocyclic analogs containing aromatic side chains” (J Med Chem, 1976)
The source made the active and inactive calls. The calls are words filed in the database; no cut-off is given here.

How the values were obtained:
[1] = system: Rattus norvegicus; experiment: Analgesic activity in po dosed Sprague-Dawley rat after 15 to 90 mins by tail flick test; type: functional
[2] = system: Mus musculus; experiment: Analgesic activity in po dosed mouse assessed as inhibition of acetic acid-induced writhing administered 30 mins prior to acetic acid challenge measured after 5 mins for 20 mins; type: functional
[3] = system: Felis catus; experiment: Hypnotic activity in cat assessed as increase in total sleep time at 0.5 mg/kg administered orally through diet measured for 12 hrs by EEG analysis; type: functional; details: route oral
[4] = system: Rattus norvegicus; experiment: Antipsychotic activity in rat assessed as reduction of methamphetamine-induced hyperactivity at 5 mg/kg, po administered prior to methamphetamine challenge relative to vehicle-treated control; type: functional; parameters: scale not given: the % may be the effect or the level left
[5] = system: Rattus norvegicus; experiment: Antianxiety activity in Long-Evans rat assessed as reduction in motor activity at 5 mg/kg, po after 2 hrs relative to vehicle-treated control; type: functional; parameters: scale not given: the % may be the effect or the level left
[6] = system: Felis catus; experiment: Hypnotic activity in cat assessed as increase in non-REM sleep time at 0.5 mg/kg administered orally through diet measured for 12 hrs by EEG analysis; type: functional; details: route oral
[7] = system: Mus musculus; experiment: Antianxiety activity in albino BALB/cJ mouse assessed as reduction in footshock-induced fighting behavior at 10 mg/kg, po after 30 to 90 mins; type: functional; parameters: scale not given: the % may be the effect or the level left
[8] = Acute toxicity in po dosed mouse; type: organism-based; details: in vivo
[9] = system: Rattus norvegicus; experiment: Antipsychotic activity in rat assessed as reduction of methamphetamine-induced hyperactivity at 2 mg/kg, po administered prior to methamphetamine challenge relative to vehicle-treated control; type: functional; parameters: scale not given: the % may be the effect or the level left
[10] = system: Rattus norvegicus; experiment: Antihypertensive activity in spontaneously hypertensive rat model assessed as reduction in blood pressure at 1 mg/kg, po after 3 hrs; type: functional; parameters: scale not given: the % may be the effect or the level left
[11] = species on record: Rattus norvegicus; experiment: animal or person; type: functional; details: Charles River, route oral
Description: Antidiarrheal activity in Charles River rat assessed as inhibition of castor oil-induced diarrhea by measuring protected animals at 0.5 mg/kg, po administered 1 hr prior to castor oil challenge measured after 1 hr relative to vehicle-treated control

[12] = system: Rattus norvegicus; experiment: Antihypertensive activity in spontaneously hypertensive rat model assessed as reduction in blood pressure at 1 mg/kg, po after 24 hrs; type: functional; parameters: scale not given: the % may be the effect or the level left
[13] = system: Rattus norvegicus; experiment: Antihypertensive activity in spontaneously hypertensive rat model assessed as reduction in blood pressure at 3 mg/kg, po after 3 hrs; type: functional; parameters: scale not given: the % may be the effect or the level left
[14] = system: Rattus norvegicus; experiment: Antipsychotic activity in rat assessed as reduction of methamphetamine-induced hyperactivity at 20 mg/kg, po administered prior to methamphetamine challenge relative to vehicle-treated control; type: functional; parameters: scale not given: the % may be the effect or the level left
[15] = system: Rattus norvegicus; experiment: Antihypertensive activity in spontaneously hypertensive rat model assessed as reduction in blood pressure at 3 mg/kg, po after 24 hrs; type: functional; parameters: scale not given: the % may be the effect or the level left
[16] = system: Mus musculus; experiment: Analgesic activity in mouse assessed as inhibition of acetic acid-induced writhing at 10 mg/kg, po administered 30 mins prior to acetic acid challenge measured after 5 mins for 20 mins; type: functional
[17] = system: Rattus norvegicus; experiment: Antianxiety activity in Long-Evans rat assessed as reduction in motor activity at 10 mg/kg, po after 2 hrs relative to vehicle-treated control; type: functional; parameters: scale not given: the % may be the effect or the level left
[18] = system: Mus musculus; experiment: Antianxiety activity in albino BALB/cJ mouse assessed as reduction in footshock-induced fighting behavior at 5 mg/kg, po after 30 to 90 mins; type: functional; parameters: scale not given: the % may be the effect or the level left

Cc1ccc(CCCC(C)c2cc(O)c3c(c2)OC(C)(C)C2=C3CN(Cc3ccccc3)CC2)cc1 (centres undefined)
Activity [1]: inactive
inhibition [2]: inactive

CC1CSC2=C1c1c(O)cc(C(C)CCCc3ccc(F)cc3)cc1OC2(C)C (centres undefined)
Time [3]: 11 min
Activity [4]: 78%
Activity [5]: 85%
Time [6]: 8 min
Activity [7]: 100%
LD50 [8]: 500 mg/kg
ED50 [2]: 8.4 mg/kg
Activity [9]: 55%

CC(CCc1ccc(F)cc1)c1cc(O)c2c(c1)OC(C)(C)C1=C2CN(Cc2ccccc2)CC1 (centres undefined)
Activity [1]: inactive
inhibition [2]: inactive

Cc1ccc(CCCC(C)c2cc(O)c3c4c(c(=O)oc3c2)CCC(C)C4)cc1 (centres undefined)
Activity [1]: inactive
inhibition [2]: inactive

Cc1ccc(CCCC(C)c2cc(O)c3c(c2)OC(C)(C)C2=C3CC(C)CC2)cc1 (centres undefined)
Activity [4]: 66%
Activity [5]: 16%
Activity [10]: 0%
inhibition in vivo at 0.5 mg/kg [11]: 90%
Activity [12]: 0%
Activity [13]: 26%
Activity [14]: 72%
Activity [15]: 16%
inhibition in vivo at 10 mg/kg [16]: 30%
Activity [7]: 10%
LD50 [8]: ≥ 1000 mg/kg

CCCCCc1cc(O)c2c(c1)OC(C)(C)C1=C2CNCC1
Activity [1]: inactive
inhibition [2]: inactive

CC(CCCCc1ccc(F)cc1)c1cc(O)c2c3c(c(=O)oc2c1)CCN(Cc1ccccc1)C3 (centres undefined)
Activity [1]: inactive
inhibition [2]: inactive

Cc1ccc(CCCC(C)c2cc(O)c3c4c(c(=O)oc3c2)CCN(Cc2ccccc2)C4)cc1 (centres undefined)
Activity [1]: inactive
inhibition [2]: inactive

CNC1=Nc2ccc(Cl)cc2C(c2ccccc2)=[N+]([O-])C1.Cl [CHLORDIAZEPOXIDE HYDROCHLORIDE]
Activity [5]: 26%
Activity [7]: 53%
Activity [17]: 54%

CC1CCc2c(c3c(O)cc(C(C)CCCc4ccc(F)cc4)cc3oc2=O)C1 (centres undefined)
Activity [1]: inactive
inhibition [2]: inactive

CCCCCc1cc(O)c2c3c(c(=O)oc2c1)CCN(Cc1ccccc1)C3
Activity [1]: inactive
inhibition [2]: inactive

Cc1ccc(CCCC(C)c2cc(O)c3c(c2)OC(C)(C)C2=C3CNCC2)cc1 (centres undefined)
Activity [1]: inactive
inhibition [2]: inactive

CC1CCc2c(c3c(O)cc(C(C)CCc4ccc(F)cc4)cc3oc2=O)C1 (centres undefined)
Activity [1]: inactive
inhibition [2]: inactive

CC(CCCc1ccc(F)cc1)c1cc(O)c2c(c1)OC(C)(C)C1=C2CN(Cc2ccccc2)CC1 (centres undefined)
Activity [1]: inactive
inhibition [2]: inactive

CC(CCCc1ccc(F)cc1)C(C)c1cc(O)c2c3c(c(=O)oc2c1)CCN(Cc1ccccc1)C3 (centres undefined)
Activity [1]: inactive
inhibition [2]: inactive

CC(CCc1ccc(F)cc1)c1cc(O)c2c(c1)OC(C)(C)C1=C2CNCC1 (centres undefined)
Activity [1]: inactive
inhibition [2]: inactive

CC1CCc2c(c3c(O)cc(C(C)CCCCc4ccc(F)cc4)cc3oc2=O)C1 (centres undefined)
Activity [1]: inactive
inhibition [2]: inactive

CC1CCc2c(c3c(O)cc(C(C)C(C)Cc4ccc(F)cc4)cc3oc2=O)C1 (centres undefined)
Activity [1]: inactive
inhibition [2]: inactive

C#CCN1CCC2=C(C1)c1c(OC(=O)CCCN3CCOCC3)cc(C(C)CCCc3ccc(F)cc3)cc1OC2(C)C.Cl.Cl (centres undefined)
Activity [4]: 33%
Activity [5]: 48%
Activity [7]: 0%
LD50 [8]: ≥ 1000 mg/kg
ED50 [1]: 5 mg/kg
ED50 [2]: 9 mg/kg

CC(CCCc1ccc(F)cc1)c1cc(O)c2c3c(c(=O)oc2c1)N1CCC3CC1 (centres undefined)
Activity [1]: inactive
inhibition [2]: inactive

C#CCN1CCC2=C(C1)c1c(OC(=O)C(C)CCN3CCOCC3)cc(C(C)CCCc3ccc(F)cc3)cc1OC2(C)C.Cl (centres undefined)
Activity [4]: 24%
Activity [5]: 71%
Activity [7]: 26%
LD50 [8]: ≥ 1000 mg/kg
ED50 [1]: 7 mg/kg
ED50 [2]: 7.2 mg/kg

C#CCN1CCC2=C(C1)c1c(O)cc(C(C)C(C)CCCc3ccc(F)cc3)cc1OC2(C)C (centres undefined)
Activity [4]: 0%
Activity [5]: 46%
inhibition in vivo at 0.5 mg/kg [11]: 0%
Activity [18]: 23%
inhibition in vivo at 10 mg/kg [16]: 35%
LD50 [8]: ≥ 1000 mg/kg

CC(CCCc1ccc(F)cc1)c1cc(O)c2c3c(c(=O)oc2c1)SCC3C (centres undefined)
Activity [1]: inactive
inhibition [2]: inactive
